Measured values reported in ChEMBL document CHEMBL2321862, “Development and evaluation of novel phosphotyrosine mimetic inhibitors targeting the Src homology 2 domain of signaling lymphocytic activation molecule (SLAM) associated protein” (J Med Chem, 2013).
The source made the active and inactive calls. Peptide text beside a SMILES is read from it.

Legend:
[1] = target: T1, SH2 domain-containing protein 1A (Homo sapiens) (UniProt O60880); experiment: Inhibition of recombinant 6-His-tagged SLAM associated protein SH2 domain (unknown origin) expressed in Escherichia coli BL21(DE3) binding to biotinyl-KKSLTIpYAQVQK-NH2 attached to NeutrAvidin-coated plates using p-nitrophenyl phosphate as substrate at 10 uM after 1 hr relative to control
T1 sequence (whole entry): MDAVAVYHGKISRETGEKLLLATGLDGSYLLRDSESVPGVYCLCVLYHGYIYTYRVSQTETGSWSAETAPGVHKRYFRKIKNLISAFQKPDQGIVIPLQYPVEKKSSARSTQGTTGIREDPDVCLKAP

[2] = target: T1, SH2 domain-containing protein 1A (Homo sapiens); experiment: Inhibition of recombinant 6-His-tagged SLAM associated protein SH2 domain (unknown origin) expressed in Escherichia coli BL21(DE3) binding to biotinyl-KKSLTIpYAQVQK-NH2 attached to NeutrAvidin-coated plates using p-nitrophenyl phosphate as substrate at 100 uM after 1 hr
[3] = target: T1, SH2 domain-containing protein 1A (Homo sapiens); experiment: (§1) Inhibition of recombinant 6-His-tagged SLAM associated protein SH2 domain (unknown origin) expressed in Escherichia coli BL21(DE3) binding to biotinyl-KKSLTIpYAQVQK-NH2 attached to NeutrAvidin-coated plates using p-nitrophenyl phosphate as substrate after 1 hr
[4] = target: T2, SH2 domain-containing protein 1A (Homo sapiens, UniProt O60880); experiment: as §1
T2 sequence (O60880 whole entry): T1 sequence (whole entry)

[5] = target: T1, SH2 domain-containing protein 1A (Homo sapiens); experiment: Inhibition of recombinant 6-His-tagged SLAM associated protein SH2 domain (unknown origin) expressed in Escherichia coli BL21(DE3) binding to biotinyl-KKSLTIpYAQVQK-NH2 attached to NeutrAvidin-coated plates using p-nitrophenyl phosphate as substrate up to 1 uM after 1 hr
[6] = target: T1, SH2 domain-containing protein 1A (Homo sapiens); experiment: as §1, with “hr in presence of calf intestine phosphatase” for “hr”

Structure (SMILES)	fold change (FC) [1]	inhibition [2]	inhibition [3]	IC50 [4] [µM]	inhibition [5]	inhibition [6]
NC(=O)[C@H](CC(=O)O)NC(=O)[C@H](Cc1ccc2c(c1)COP(=O)(O)O2)NC(=O)OCC1c2ccccc2-c2ccccc21	0.55	Active	Dose-dependent effect	17		
CC(C)(C)OC(=O)NCCCC[C@H](NC(=O)[C@H](Cc1ccc2c(c1)COP(=O)(O)O2)NC(=O)OCC1c2ccccc2-c2ccccc21)C(N)=O	0.7	Active	Dose-dependent effect	34		
CC(=O)N[C@@H](CC(=O)O)C(=O)N[C@@H](CC(=O)O)C(=O)N1CCC[C@H]1C(=O)N[C@@H](CO)C(=O)N[C@@H](Cc1ccc(OP(=O)(O)O)cc1)C(=O)N[C@H](C(=O)N[C@@H](CC(N)=O)C(=O)N[C@H](C(=O)N[C@@H](CCC(N)=O)C(N)=O)C(C)C)C(C)C (HELM PEPTIDE1{[ac].D.D.P.S.[O=C([C@H](Cc1ccc(OP(=O)(O)O)cc1)N[*:1])[*:2]].V.N.V.Q.[am]}$$$$V2.0)					inactive	
NC(=O)[C@H](CC(=O)O)NC(=O)[C@@H](N)Cc1ccc2c(c1)COP(=O)(O)O2			inactive			
CC[C@H](C)[C@H](NC(=O)[C@@H](NC(=O)[C@H](CC(C)C)NC(=O)[C@H](CO)NC(=O)[C@H](CCCCN)NC(=O)[C@H](CCCCN)NC(C)=O)[C@@H](C)O)C(=O)N[C@@H](Cc1ccc(OP(=O)(O)O)cc1)C(=O)N[C@@H](C)C(=O)N[C@@H](CCC(N)=O)C(=O)N[C@H](C(=O)N[C@@H](CCC(N)=O)C(=O)N[C@@H](CCCCN)C(N)=O)C(C)C (HELM PEPTIDE1{[ac].K.K.S.L.T.I.[O=C([C@H](Cc1ccc(OP(=O)(O)O)cc1)N[*:1])[*:2]].A.Q.V.Q.K.[am]}$$$$V2.0)			Dose-dependent effect			inactive
C[C@H](NC(=O)[C@H](Cc1ccc2c(c1)COP(=O)(O)O2)NC(=O)OCC1c2ccccc2-c2ccccc21)C(N)=O	1.09	Active				
NC(=O)[C@@H]1CCCN1C(=O)[C@H](Cc1ccc2c(c1)COP(=O)(O)O2)NC(=O)OCC1c2ccccc2-c2ccccc21	1.05	Active				
NC(=O)[C@H](Cc1ccccc1)NC(=O)[C@H](Cc1ccc2c(c1)COP(=O)(O)O2)NC(=O)OCC1c2ccccc2-c2ccccc21	0.73	Active	Dose-dependent effect	35		
COC(=O)[C@H](Cc1ccc2c(c1)COP(=O)(O)O2)NC(=O)CNC(=O)OCC1c2ccccc2-c2ccccc21	0.77	Active				
COC(=O)[C@H](Cc1ccc2c(c1)COP(=O)(O)O2)NC(=O)[C@H](Cc1cn(C(c2ccccc2)(c2ccccc2)c2ccccc2)cn1)NC(=O)OCC1c2ccccc2-c2ccccc21	1.06	Active				
N=C(N)NCCC[C@H](NC(=O)[C@H](Cc1ccc2c(c1)COP(=O)(O)O2)NC(=O)OCC1c2ccccc2-c2ccccc21)C(N)=O	0.94	Active				
CC(C)(C)OC[C@H](NC(=O)[C@H](Cc1ccc2c(c1)COP(=O)(O)O2)NC(=O)OCC1c2ccccc2-c2ccccc21)C(N)=O	1.27	Active				
COC(=O)[C@H](Cc1ccc2c(c1)COP(=O)(O)O2)NC(=O)[C@H](Cc1cn(C(=O)OC(C)(C)C)c2ccccc12)NC(=O)OCC1c2ccccc2-c2ccccc21	1.2	Active				
CC(C)(C)OC(=O)n1cc(C[C@H](NC(=O)[C@H](Cc2ccc3c(c2)COP(=O)(O)O3)NC(=O)OCC2c3ccccc3-c3ccccc32)C(N)=O)c2ccccc21	1.33	Active				
